Experimental data as given in the supplement of paper PMC12076712.

Assays:
Assay in all cases: pIC50, kinobeads binding competition
UniProt Q8IW41 = biological target: T1, UniProt Q8IW41
T1 sequence (whole entry): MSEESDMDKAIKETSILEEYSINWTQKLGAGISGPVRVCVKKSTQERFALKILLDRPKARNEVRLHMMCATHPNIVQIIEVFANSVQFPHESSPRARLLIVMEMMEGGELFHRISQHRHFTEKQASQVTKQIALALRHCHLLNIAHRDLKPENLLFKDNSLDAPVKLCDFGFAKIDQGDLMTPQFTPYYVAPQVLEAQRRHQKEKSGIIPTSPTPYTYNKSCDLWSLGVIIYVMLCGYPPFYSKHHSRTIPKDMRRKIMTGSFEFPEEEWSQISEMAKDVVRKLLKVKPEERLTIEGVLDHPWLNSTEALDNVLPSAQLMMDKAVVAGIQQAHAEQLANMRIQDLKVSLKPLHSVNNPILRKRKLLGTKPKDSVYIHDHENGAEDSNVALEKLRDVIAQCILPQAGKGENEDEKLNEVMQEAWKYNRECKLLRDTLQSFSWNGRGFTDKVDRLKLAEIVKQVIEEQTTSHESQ
Procedure, shortened: (§1)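 Live Jurkat cells were treated with nine compound concentrations (top 30 μM, 1:4 steps) or DMSO for 60 min at 37 °C before lysis. Alternatively, Jurkat lysate or a 1:1:1:1 HEK293/K-562/HepG2/placenta lysate mix was incubated with nine concentrations (top 30 μM, 1:5 steps) for 60 min at 4 °C. Kinobeads-bound proteins were digested and quantified by TMT10 LC-MS/MS. pIC50 came from logistic dose-response fits (R drc package) of fold changes versus DMSO, in biological duplicates.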

TTK = biological target: T2, TTK (UniProt P33981)
T2 sequence (whole entry): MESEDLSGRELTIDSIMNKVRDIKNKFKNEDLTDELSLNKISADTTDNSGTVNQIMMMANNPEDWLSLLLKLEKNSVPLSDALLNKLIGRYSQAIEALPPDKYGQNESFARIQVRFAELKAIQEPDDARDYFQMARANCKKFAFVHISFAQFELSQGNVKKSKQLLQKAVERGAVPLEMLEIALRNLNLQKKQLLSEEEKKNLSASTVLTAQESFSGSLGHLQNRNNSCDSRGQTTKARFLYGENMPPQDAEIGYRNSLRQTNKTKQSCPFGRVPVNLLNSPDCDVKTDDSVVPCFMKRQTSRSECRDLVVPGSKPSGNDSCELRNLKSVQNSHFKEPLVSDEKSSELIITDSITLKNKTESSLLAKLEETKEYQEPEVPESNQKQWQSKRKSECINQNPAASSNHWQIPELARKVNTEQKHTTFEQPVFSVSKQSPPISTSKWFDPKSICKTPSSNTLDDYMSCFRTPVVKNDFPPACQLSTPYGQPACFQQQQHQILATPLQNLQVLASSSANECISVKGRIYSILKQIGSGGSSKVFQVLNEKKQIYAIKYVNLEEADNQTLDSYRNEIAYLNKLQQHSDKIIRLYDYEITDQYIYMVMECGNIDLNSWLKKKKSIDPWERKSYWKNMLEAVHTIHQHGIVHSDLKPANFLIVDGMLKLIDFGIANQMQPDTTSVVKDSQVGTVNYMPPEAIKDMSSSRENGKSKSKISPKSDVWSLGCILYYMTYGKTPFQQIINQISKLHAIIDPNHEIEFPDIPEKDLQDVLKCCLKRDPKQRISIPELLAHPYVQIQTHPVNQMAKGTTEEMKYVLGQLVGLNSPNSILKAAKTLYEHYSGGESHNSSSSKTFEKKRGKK
Procedure, shortened: as §1

UniProt O14965 = biological target: T3, UniProt O14965
T3 sequence (whole entry): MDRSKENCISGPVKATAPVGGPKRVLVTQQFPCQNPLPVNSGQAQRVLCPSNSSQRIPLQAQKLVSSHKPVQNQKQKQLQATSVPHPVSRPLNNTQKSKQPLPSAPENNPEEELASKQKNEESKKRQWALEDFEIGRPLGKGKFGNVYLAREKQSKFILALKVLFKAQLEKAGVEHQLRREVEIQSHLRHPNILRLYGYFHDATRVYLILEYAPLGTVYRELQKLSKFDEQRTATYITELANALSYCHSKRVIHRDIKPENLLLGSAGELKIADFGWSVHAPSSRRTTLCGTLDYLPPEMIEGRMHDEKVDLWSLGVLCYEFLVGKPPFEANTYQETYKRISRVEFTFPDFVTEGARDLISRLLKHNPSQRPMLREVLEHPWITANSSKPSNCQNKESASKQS
Procedure, shortened: as §1

UniProt O14920 = biological target: T4, UniProt O14920
T4 sequence (whole entry): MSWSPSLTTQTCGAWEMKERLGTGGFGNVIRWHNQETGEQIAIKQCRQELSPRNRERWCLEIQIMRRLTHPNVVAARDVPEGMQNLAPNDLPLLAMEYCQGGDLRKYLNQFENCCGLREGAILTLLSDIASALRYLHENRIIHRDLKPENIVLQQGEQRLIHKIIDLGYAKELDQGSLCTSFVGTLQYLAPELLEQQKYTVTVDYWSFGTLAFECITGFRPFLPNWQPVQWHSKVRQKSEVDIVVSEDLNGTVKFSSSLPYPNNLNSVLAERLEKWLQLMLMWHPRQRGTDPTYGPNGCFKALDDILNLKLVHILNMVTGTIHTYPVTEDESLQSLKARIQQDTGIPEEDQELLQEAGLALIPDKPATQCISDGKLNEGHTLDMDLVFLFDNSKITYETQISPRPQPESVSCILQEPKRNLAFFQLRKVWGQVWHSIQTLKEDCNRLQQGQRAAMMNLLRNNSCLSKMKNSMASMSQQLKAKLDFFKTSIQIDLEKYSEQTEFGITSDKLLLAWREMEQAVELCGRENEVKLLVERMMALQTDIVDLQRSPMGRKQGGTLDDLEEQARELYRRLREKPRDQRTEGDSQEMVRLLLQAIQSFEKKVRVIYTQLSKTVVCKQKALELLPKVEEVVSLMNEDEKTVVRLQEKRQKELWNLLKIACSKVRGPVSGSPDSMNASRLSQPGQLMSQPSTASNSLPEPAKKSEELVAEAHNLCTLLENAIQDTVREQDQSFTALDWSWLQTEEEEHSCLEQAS
Procedure, shortened: as §1

Compound `C#CCNC(=O)c1cc(Nc2cc(C3CC3)[nH]n2)nc(N2CCN(Cc3ccc(S(=O)(=O)F)cc3)CC2)n1` has a pIC50 (UniProt Q8IW41; cell material: Jurkat lysate) of under 4.52, a pIC50 (UniProt Q8IW41; cell material: Lysate mix) of under 4.52 and a pIC50 (TTK; cell material: Jurkat cells) of 5.56. It also gave a pIC50 (TTK; cell material: Jurkat lysate) of under 4.52, a pIC50 (TTK; cell material: Lysate mix) of under 4.52 and a pIC50 (UniProt O14965; cell material: Jurkat cells) of 7.04. For the same compound, the pIC50 (UniProt O14965; cell material: Jurkat lysate) was 6.25, the pIC50 (UniProt O14965; cell material: Lysate mix) was 7.06 and the pIC50 (UniProt O14920; cell material: Jurkat cells) was under 4.52. For the same compound, the pIC50 (UniProt O14920; cell material: Jurkat lysate) was under 4.52 and the pIC50 (UniProt O14920; cell material: Lysate mix) was under 4.52.
`C#CCNC(=O)c1cc(Nc2cc(C)[nH]n2)nc(N2CCN(Cc3ccc(S(=O)(=O)F)cc3)CC2)n1` showed a pIC50 (UniProt Q8IW41; cell material: Lysate mix) of under 4.52, a pIC50 (TTK; cell material: Lysate mix) of under 4.52 and a pIC50 (UniProt O14965; cell material: Lysate mix) of 6.73. The pIC50 (UniProt O14920; cell material: Lysate mix) was under 4.52.
`Cc1cc(Nc2cc(C(=O)NCCNC(=O)OC3CC/C=C/CCC3)nc(N3CCN(Cc4ccc(S(=O)(=O)F)cc4)CC3)n2)n[nH]1` (centres undefined) was tested, and the pIC50 (UniProt Q8IW41; cell material: Lysate mix) was under 4.52, the pIC50 (TTK; cell material: Lysate mix) was under 4.52 and the pIC50 (UniProt O14965; cell material: Lysate mix) was 5.39. The pIC50 (UniProt O14920; cell material: Lysate mix) was under 4.52.
Work on `O=C(NCCNC(=O)c1cc(Nc2cc(C3CC3)[nH]n2)nc(N2CCN(Cc3ccc(S(=O)(=O)F)cc3)CC2)n1)OC1CC/C=C/CCC1` (centres undefined) yielded a pIC50 (UniProt Q8IW41; cell material: Jurkat cells) of under 4.52, a pIC50 (UniProt Q8IW41; cell material: Jurkat lysate) of under 4.52 and a pIC50 (UniProt Q8IW41; cell material: Lysate mix) of under 4.52. For the same compound, the pIC50 (TTK; cell material: Jurkat cells) was under 4.52, the pIC50 (TTK; cell material: Jurkat lysate) was under 4.52 and the pIC50 (TTK; cell material: Lysate mix) was under 4.52. It also gave a pIC50 (UniProt O14965; cell material: Jurkat cells) of 6.98, a pIC50 (UniProt O14965; cell material: Jurkat lysate) of 5 and a pIC50 (UniProt O14965; cell material: Lysate mix) of 5.3. The pIC50 (UniProt O14920; cell material: Jurkat cells) was under 4.52, the pIC50 (UniProt O14920; cell material: Jurkat lysate) was under 4.52 and the pIC50 (UniProt O14920; cell material: Lysate mix) was under 4.52.
Work on `CCNC(=O)c1cc(Nc2cc(C)[nH]n2)nc(N2CCN(Cc3ccc(S(=O)(=O)F)cc3)CC2)n1` yielded a pIC50 (UniProt Q8IW41; cell material: Lysate mix) of under 4.52, a pIC50 (TTK; cell material: Lysate mix) of under 4.52 and a pIC50 (UniProt O14965; cell material: Lysate mix) of 7.67. It also gave a pIC50 (UniProt O14920; cell material: Lysate mix) of under 4.52.
With `CCNC(=O)c1cc(Nc2cc(C3CC3)[nH]n2)nc(N2CCN(Cc3ccc(S(=O)(=O)F)cc3)CC2)n1` the pIC50 (UniProt Q8IW41; cell material: Lysate mix) was under 4.52, the pIC50 (TTK; cell material: Lysate mix) was under 4.52 and the pIC50 (UniProt O14965; cell material: Lysate mix) was 6.86. It also gave a pIC50 (UniProt O14920; cell material: Lysate mix) of under 4.52.
